Reference: patent US20250129012A1, “ANTI-INFLAMMATORY AND ANALGESIC COMPOUNDS AND USE THEREOF” (JIANGSU ATOM BIOSCIENCE AND PHARMACEUTICAL CO., LTD., priority 2021, published 2025)
Where two headings read alike, the source gives them in different places. Marks after values point to notes of the source that are not given here.

Assays:
[1] = tested on: IL-6; test: Inflammatory factor experiment A: IL-6 in gouty arthritis rats; type: in vivo, SD rats; conditions: synovial tissue of knee joints; dose 0.6 mg/kg gavage; day 10
Experimental: (§1) Compounds 14, 17 and 26 were prepared by grinding with 0.5% CMC-Na before administration and into a suspension for gavage at the corresponding concentration (0.06 mg/mL), with a dosage volume of 10 mL/kg. Colchicine, purchased from Sun Chemical Technology (Shanghai) Co., Ltd. with batch no. 49ETRRAS, and was prepared by grinding with 0.5% CMC-Na before administration and into a suspension for gavage at the corresponding concentration (0.06 mg/mL), with a dosage volume of 10 mL/kg.
(§2) The compounds in each group were prepared into a suspension of the corresponding concentration, and the dosage volume was 10 mL/kg.
(§3) The crystalline arthritis model was prepared by intra-articular injection of urate crystals (40 mg/mL in the left ankle joint of each rat). Different doses of the test compounds were given separately by gavage administration. The day of administration was defined as day 1 of the experiment, and the compounds were administered once a day for 10 consecutive days (pre-administration of the drug for 7 days prior to modeling, modeling on day 8, and continuation of the drug for 3 days). The experiment ended on day 10. […]

[2] = tested on: TNF-α; test: Inflammatory factor experiment A: TNF-α in gouty arthritis rats; type: in vivo, SD rats; conditions: synovial tissue of knee joints; dose 0.6 mg/kg gavage; day 10
Experimental: as §1, §2, §3

[3] = In vivo pharmacokinetics in SD rats; conditions: Sprague-Dawley, rat; for F / AUC(0-inf) / MRT inf / Vd / clearance / Cmax / Tmax: in vivo; for half-life: plasma, read-out: t1/2 (converted)
How it was run: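 SD rats received compound intravenously (0.5 mg/mL solution) or by oral gavage (1 mg/mL, fasted overnight), both formulated in DMSO/Solutol HS15/saline. Plasma compound concentrations were measured by LC/MS/MS. Non-compartmental parameters were then calculated.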

[4] = tested on: gouty arthritis rats (sodium urate, right ankle and knee joint cavities); test: Pharmacodynamics experiment B on gouty arthritis rats: gait score; type: in vivo, SD rats; conditions: for Gait Score: dose 0.6 mg/kg gavage, mean; for Gait versus model group, in words: compounds 0.6 mg/kg, colchicine 0.6 and 1.2 mg/kg
How it was run: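 Male SD rats (180-220 g) received test compounds by gavage as 0.5% CMC-Na suspensions, once daily for 7 days before modeling and for 3 days afterward. Gouty arthritis was induced by injecting 0.2 mL sodium urate solution into the right ankle and knee joint cavities. Gait was graded 0-3 using modified Coderre criteria, and group mean scores were compared with the model group by ANOVA-Dunnett T-test (P<0.05).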

[5] = tested on: gouty arthritis rats (sodium urate, right ankle and knee joint cavities); test: Pharmacodynamics experiment B on gouty arthritis rats: ankle swelling rate; type: in vivo, SD rats; conditions: Rattus norvegicus, po, dose 0.6 mg/kg gavage, read-out: Swelling rate (ankle)
How it was run: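 Male SD rats dosed by gavage at 0.6 mg/kg (0.5% CMC-Na suspension) daily for 7 days before and 3 days after injection of 0.2 mL sodium urate solution into right ankle and knee joints. Ankle circumference measured before and 2-48 h after modeling; swelling rate = swelling degree/baseline ×100%, mean values.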

[6] = tested on: TNF-α; test: Inflammatory factor experiment B: TNF-α in knee synovial tissue (ELISA); type: in vivo, SD rats; conditions: Rattus norvegicus, po; synovial tissue of knee joints, 48 h after modeling; dose 0.6 mg/kg; read-out: TNF-α percentage decrease %
[7] = Acute toxicity test in mice by single administration; type: in vivo, ICR mice; conditions: both sexes, ICR, mouse, in vivo, po; acute toxicity, mice, single gavage; read-out: Maximum tolerated dose (MTD)
Experimental: (§4) Compounds 34, 48, 55 and 58 were ground with 0.5% CMC-Na before administration, and prepared into a suspension of the corresponding concentration for gavage, with an administration volume of 0.1 mL/10 g.
(§5) ICR mice, SPF grade, weighing 18-20 g, 6-8 weeks old, were provided by Nantong University. The Laboratory Animal Production License was SCXK (Su) 2016-0010 and Laboratory Animal Use License was SYXK (Su) 2017-0035.
(§6) After overnight fasting, the drug was administered once by gavage in a volume of 0.1 mL/10 g. The normal group was given the corresponding volume of 0.5% CMC-Na solution according to body weight. The state of the animal was observed after administration, the animals were weighed daily and the number of deaths was recorded for 14 consecutive days.

[8] = tested on: ICR mice; test: as above; type: in vivo; conditions: 14 days, deaths/animals
Experimental: as §4, §5, §6

[9] = tested on: IL-6; test: Inflammatory factor experiment B: IL-6 in knee synovial tissue (ELISA); type: in vivo, SD rats; conditions: Rattus norvegicus, po; synovial tissue of knee joints, 48 h after modeling; dose 0.6 mg/kg; read-out: IL-6 percentage decrease %
[10] = tested on: IL-1β; test: Inflammatory factor experiment B: IL-1β in knee synovial tissue (ELISA); type: in vivo, SD rats; conditions: Rattus norvegicus, po; synovial tissue of knee joints, 48 h after modeling; dose 0.6 mg/kg; read-out: IL-1β percentage decrease %
[11] = Intravenous injection - 1 mg/kg

Compound	F ([3]; 10 mg/kg)	AUC(0-inf) ([3]; iv, 1 mg/kg)	MRT inf ([3]; iv, 1 mg/kg)	Vd ([3]; iv, 1 mg/kg)	clearance ([3]; iv, 1 mg/kg)	AUC(0-inf) ([3]; po, 10 mg/kg)	Cmax ([3]; po, 10 mg/kg)	MRT inf ([3]; po, 10 mg/kg)	Tmax ([3]; po, 10 mg/kg)	half-life ([3]; po, Gavage - 10 mg/kg)	half-life [3, 11]	Gait Score ([4]; 2 h)	inhibition in vivo at 0.6 mg/kg [6]	MTD at 14 days [7]	Mortality rate ([8]; single gavage dose 50 mg/kg)	Mortality rate ([8]; single gavage dose 100 mg/kg)	Mortality rate ([8]; single gavage dose 400 mg/kg)	Mortality rate ([8]; single gavage dose 600 mg/kg)	inhibition in vivo at 0.6 mg/kg [9]	inhibition in vivo at 0.6 mg/kg [10]	further results
COc1cc2c(c(OC)c1OC)-c1cc(Br)c(OC)c(=O)cc1[C@@H](NC(C)=O)CC2 [Compound 14, (S)—N-(11-bromo-1,2,3,10-tetramethoxy-9-oxo-5,6,7,9-tetrahydrobenzo[a]heptalen-7-yl)acetamide]																					Decreased IL-6 percentage % [1]: 119.58%; Decreased TNF-α percentage % [2]: 125.78%
CNC(=O)c1ccc2c(cc1=O)[C@@H](NC(C)=O)CCc1cc(OC)c(OC)c(OC)c1-2 [Compound 48, (S)-7-acetamido-1,2,3-trimethoxy-N-methyl-9-oxo-5,6,7,9-tetrahydrobenzo[a]heptalene-10-carboxamide]	57.0%	580 ng·h/mL	0.641 h	1.11 L/kg	29.2 mL/min/kg	3300 ng·h/mL	1930 ng/mL	1.83 h	0.25 h	1.61 h	0.536 h	0	81.6%	> 600 mg/kg	0/6	0/6	0/6	0/6	110%	82.2%	Gait Score ([4]; 4 h): 0.1; Gait Score ([4]; 8 h): 0.1**; Gait Score ([4]; 10 h): 0**; Gait Score ([4]; 24 h): 0*; Gait Score ([4]; 48 h): 0; Gait versus model group, in words [4]: significant improvement in gait occurred at different time points; change in vivo at 0.6 mg/kg ([5]; 2 h): 9.42%; change in vivo at 0.6 mg/kg ([5]; 4 h): 15.5%; change in vivo at 0.6 mg/kg ([5]; 8 h): 21%; change in vivo at 0.6 mg/kg ([5]; 10 h): 21.5%; change in vivo at 0.6 mg/kg ([5]; 24 h): 22.4%; change in vivo at 0.6 mg/kg ([5]; 48 h): 13.6%
CCNC(=O)c1ccc2c(cc1=O)[C@@H](NC(C)=O)CCc1cc(OC)c(OC)c(OC)c1-2 [Compound 55, (S)-7-acetamido-1,2,3-trimethoxy-N-ethyl-9-oxo-5,6,7,9-tetrahydrobenzo[a]heptalen-10-carboxamide]	115%	543 ng·h/mL	0.592 h	1.1 L/kg	31.2 mL/min/kg	6260 ng·h/mL	2040 ng/mL	2.72 h	0.333 h	2.02 h	0.6 h		86.4%	> 600 mg/kg	0/6	0/6	0/6	0/6	128%	133%	
COc1cc2c(c(OC)c1OC)-c1ccc(C(=O)Nc3ccccc3)c(=O)cc1[C@@H](NC(C)=O)CC2 [Compound 58, (S)-7-acetamido-1,2,3-trimethoxy-N-phenyl-9-oxo-5,6,7,9-tetrahydrobenzo[a]heptalen-10-carboxamide]	109%	1390 ng·h/mL	2.04 h	1.44 L/kg	12.1 mL/min/kg	15100 ng·h/mL	2040 ng/mL	4.58 h	2.67 h	2.22 h	1.92 h	0	80.5%	> 600 mg/kg	0/6	0/6	0/6	0/6	86.7%	87.5%	Gait Score ([4]; 4 h): 0*; Gait Score ([4]; 8 h): 0.3; Gait Score ([4]; 10 h): 0.2**; Gait Score ([4]; 24 h): 0; Gait Score ([4]; 48 h): 0; Gait versus model group, in words [4]: significant improvement in gait occurred at different time points; change in vivo at 0.6 mg/kg ([5]; 2 h): 6.48%; change in vivo at 0.6 mg/kg ([5]; 4 h): 13.8%; change in vivo at 0.6 mg/kg ([5]; 8 h): 17.2%; change in vivo at 0.6 mg/kg ([5]; 10 h): 20.4%; change in vivo at 0.6 mg/kg ([5]; 24 h): 18.1%; change in vivo at 0.6 mg/kg ([5]; 48 h): 8.42%
